Measurements reported in patent US20150337056A1, “Method for Immediately Terminating Radical Polymerizations, Inhibitor Solution, and Use Thereof” (Allessa GmbH, priority 2013, published 2015).

Legend:
[1] = solutions in N-alkylpyrrolidones (N-methylpyrrolidone, N-ethylpyrrolidone); cited from earlier work
[2] = Solubility and low-temperature stability of inhibitors in (poly)alkylene glycols
[3] = Solubility of phenothiazine in conventional organic solvents; type: physicochemical
Excerpt: Only in the N-methylpyrrolidone already mentioned and in the chemically and toxicologically related dimethylformamide could concentrated solutions of 30 percent by weight or more be prepared.
Tetrahydrofuran and acetone could also be identified as good solvents. Unfortunately these solvents have low boiling points and flashpoints which renders transport, storage and handling of the solutions more difficult.

SMILES	low temperature down to which solutions are stable [1]	temperature dependence of solubility ([2]; in (poly)alkylene glycols, between −20° C. and +20° C., FIG. 1)	solubility in poly(alkylene) glycol(s) ([2]; in poly(alkylene) glycol(s))	temperature down to which stable solutions are formed ([2]; in poly(alkylene) glycol(s))	concentrated solutions that could be prepared ([3]; in N-methylpyrrolidone and in dimethylformamide)	solubility ([3]; in methanol, ethanol, isopropanol, toluene, cyclohexane or n-hexane)	solvent quality for phenothiazine ([3]; tetrahydrofuran and acetone)
COc1ccc(O)cc1 [MEHQ, hydroquinone monomethyl ether]	−11 °C						
c1ccc2c(c1)Nc1ccccc1S2 [phenothiazine]	−11 °C	virtually independent of the temperature	readily soluble	−25 °C	≥ 30 percent by weight	2-3 percent by weight	good solvents
